Experiments:
Type in all cases: functional
Staphylococcus aureus [1] = experiment: Antimicrobial activity against Staphylococcus aureus NCTC 6571 at 5 ug/disk after 18 to 20 hrs by disk diffusion assay; conditions: read-out: IZ
Staphylococcus aureus [2] = experiment: Antimicrobial activity against Staphylococcus aureus NCTC 10399 at 5 ug/disk after 18 to 20 hrs by disk diffusion assay; conditions: read-out: IZ
Staphylococcus aureus [3] = experiment: Antimicrobial activity against ciprofloxacin and methicillin-resistant Staphylococcus aureus HG-1 at 5 ug/disk after 18 to 20 hrs by disk diffusion assay; conditions: read-out: IZ
[4] = tested on: Staphylococcus epidermidis; experiment: Antimicrobial activity against Staphylococcus epidermidis NCTC 11047 at 5 ug/disk after 18 to 20 hrs by disk diffusion assay; conditions: read-out: IZ
[5] = tested on: Staphylococcus epidermidis; experiment: Antimicrobial activity against Staphylococcus epidermidis NCTC 2749 at 5 ug/disk after 18 to 20 hrs by disk diffusion assay; conditions: read-out: IZ
[6] = tested on: Staphylococcus haemolyticus; experiment: Antimicrobial activity against Staphylococcus haemolyticus NCTC 11042 at 5 ug/disk after 18 to 20 hrs by disk diffusion assay; conditions: read-out: IZ
Staphylococcus aureus [7] = experiment: Antimicrobial activity against ciprofloxacin and epidemic methicillin-resistant Staphylococcus aureus BIG 0052 at 5 ug/disk after 18 to 20 hrs by disk diffusion assay; conditions: read-out: IZ
Pseudomonas aeruginosa [8] = experiment: Antimicrobial activity against Pseudomonas aeruginosa NCTC 6749 at 5 ug/disk after 18 to 20 hrs by disk diffusion assay; conditions: read-out: IZ
Pseudomonas aeruginosa [9] = experiment: Antimicrobial activity against Pseudomonas aeruginosa BIG 0039 at 5 ug/disk after 18 to 20 hrs by disk diffusion assay; conditions: read-out: IZ
Pseudomonas aeruginosa [10] = experiment: Antimicrobial activity against Pseudomonas aeruginosa BIG 0037 at 5 ug/disk after 18 to 20 hrs by disk diffusion assay; conditions: read-out: IZ
Pseudomonas aeruginosa [11] = experiment: Antimicrobial activity against Pseudomonas aeruginosa NCTC 10662 at 5 ug/disk after 18 to 20 hrs by disk diffusion assay; conditions: read-out: IZ
Burkholderia cepacia = experiment: Antimicrobial activity against Burkholderia cepacia NCTC 10744 at 5 ug/disk after 18 to 20 hrs by disk diffusion assay; conditions: read-out: IZ
Escherichia coli [12] = experiment: Antimicrobial activity against ciprofloxacin-resistant Escherichia coli BIG 0046 at 5 ug/disk after 18 to 20 hrs by disk diffusion assay; conditions: read-out: IZ
Escherichia coli [13] = experiment: Antimicrobial activity against Escherichia coli NCTC 10418 at 5 ug/disk after 18 to 20 hrs by disk diffusion assay; conditions: read-out: IZ
Escherichia coli [14] = experiment: Antimicrobial activity against ciprofloxacin-resistant Escherichia coli BIG 0051 at 5 ug/disk after 18 to 20 hrs by disk diffusion assay; conditions: read-out: IZ
Escherichia coli [15] = experiment: Antimicrobial activity against wild-type Escherichia coli K-12 BW-25113 at 0.15 ug after overnight incubation in presence of 1 uM Fe3-cation
Escherichia coli [16] = experiment: Antimicrobial activity against wild-type Escherichia coli K-12 BW-25113 at 0.15 ug after overnight incubation in presence of 1000 uM Fe3-cation
Escherichia coli [17] = experiment: Antimicrobial activity against isogenic Escherichia coli K-12 […] mutant at 0.15 ug after overnight incubation in presence of 1 uM Fe3-cation
Escherichia coli [18] = experiment: Antimicrobial activity against isogenic Escherichia coli K-12 […] mutant at 0.15 ug after overnight incubation in presence of 1000 uM Fe3-cation
Staphylococcus aureus [19] = experiment: Antimicrobial activity against epidemic methicillin-resistant Staphylococcus aureus NCTC 13142 at 5 ug/disk after 18 to 20 hrs by disk diffusion assay; conditions: read-out: IZ
Staphylococcus aureus [20] = experiment: Antimicrobial activity against ciprofloxacin and epidemic methicillin-resistant Staphylococcus aureus NCTC 13143 at 5 ug/disk after 18 to 20 hrs by disk diffusion assay; conditions: read-out: IZ
Pseudomonas aeruginosa [21] = experiment: Antimicrobial activity against Pseudomonas aeruginosa BIG 0063 at 5 ug/disk after 18 to 20 hrs by disk diffusion assay; conditions: read-out: IZ
Serratia marcescens = experiment: Antimicrobial activity against Serratia marcescens NCTC 1377 at 5 ug/disk after 18 to 20 hrs by disk diffusion assay; conditions: read-out: IZ

SMILES | zone of inhibition at 5 µg/disc (Staphylococcus aureus [1]) | zone of inhibition at 5 µg/disc (Staphylococcus aureus [2]) | zone of inhibition at 5 µg/disc (Staphylococcus aureus [3]) | zone of inhibition at 5 µg/disc [4] | zone of inhibition at 5 µg/disc [5] | zone of inhibition at 5 µg/disc [6] | zone of inhibition at 5 µg/disc (Staphylococcus aureus [7]) | zone of inhibition at 5 µg/disc (Pseudomonas aeruginosa [8]) | zone of inhibition at 5 µg/disc (Pseudomonas aeruginosa [9]) | zone of inhibition at 5 µg/disc (Pseudomonas aeruginosa [10]) | zone of inhibition at 5 µg/disc (Pseudomonas aeruginosa [11]) | zone of inhibition at 5 µg/disc (Burkholderia cepacia) | zone of inhibition at 5 µg/disc (Escherichia coli [12]) | zone of inhibition at 5 µg/disc (Escherichia coli [13]) | zone of inhibition at 5 µg/disc (Escherichia coli [14]) | zone of inhibition at 5 µg/disc (Staphylococcus aureus [19]) | zone of inhibition at 5 µg/disc (Staphylococcus aureus [20]) | zone of inhibition at 5 µg/disc (Pseudomonas aeruginosa [21]) | zone of inhibition at 5 µg/disc (Serratia marcescens) | other results
O=C(O)CC(O)(CC(=O)N1CCN(c2cc3c(cc2F)c(=O)c(C(=O)O)cn3C2CC2)CC1)C(=O)O (centres undefined) | 17 mm | 20 mm | 0 mm | 28 mm | 28 mm | 30 mm | 0 mm | 23 mm | 18 mm | 25 mm | 23 mm | 18 mm | 0 mm | 30 mm | 0 mm |  |  |  |  | inhibition zone (IZ) (Escherichia coli [15]): 1.1 cm; inhibition zone (IZ) (Escherichia coli [16]): 1.3 cm; inhibition zone (IZ) (Escherichia coli [17]): 0.6 cm; inhibition zone (IZ) (Escherichia coli [18]): 0.8 cm
O=C(O)CC(O)(CC(=O)O)C(=O)N1CCN(c2cc3c(cc2F)c(=O)c(C(=O)O)cn3C2CC2)CC1 | 20 mm | 23 mm | 0 mm | 21 mm | 24 mm | 20 mm | 0 mm |  |  | 24 mm |  | 18 mm | 0 mm | 27 mm | 0 mm | 21 mm | 0 mm | 24 mm | 25 mm | 
O=C(O)c1cn(C2CC2)c2cc(N3CCNCC3)c(F)cc2c1=O [CIPROFLOXACIN] | 24 mm | 27 mm | 0 mm | 25 mm | 29 mm | 25 mm | 0 mm | 35 mm | 27 mm | 31 mm | 31 mm | 22 mm | 0 mm | 32 mm | 0 mm | 22 mm | 0 mm | 32 mm | 30 mm | 
